In patent US20090270394A1, “CYCLYLAMINE DERIVATIVES AS CALCIUM CHANNEL BLOCKERS” (priority 2008, published 2009):

Molecular target: T1, Human Cav2.2 channels (Homo sapiens, UniProt Q00975)
T1 construct: expressed in transfected cells
Assay: Fluorescent assay for Cav2.2 channels using potassium depolarization to initiate channel opening
Format: cell-based
Conditions: for IC50: 30 mM K (block of open and inactivated channels), read-out: Cav 2.2 Activity IC50 at 30 mM K; for inhibition at 10 µM: read-out: Cav 2.2 Activity % Inh at 10 μM; for inhibition at 30 µM: read-out: Cav 2.2 Activity % Inh at 30 μM
Excerpt: Human Cav2.2 channels were stably expressed in HEK293 cells along with alpha2-delta and beta subunits of voltage-gated calcium channels. An inwardly rectifying potassium channel (Kir2.3) was also expressed in these cells to allow more precise control of the cell membrane potential by extracellular potassium concentration. At low bath potassium concentration, the membrane potential is relatively negative, and is depolarized as the bath potassium concentration is raised. In this way, the bath potassium concentration can be used to regulate the voltage-dependent conformations of the channels. […] After the incubation period, Cav2.2 channel opening is triggered by addition of higher concentration of potassium (70 mM final concentration) to further depolarize the cell. The degree of state-dependent block can be estimated from the inhibitory potency of compounds after incubation in different potassium concentrations.
Calcium influx through Cav2.2 channels is determined using a calcium sensitive fluorescent dye in combination with a fluorescent plate reader. Fluorescent changes were measured with either a VIPR (Aurora Instruments) or FLIPR (Molecular Devices) plate reader.
• 1. Seed cells in Poly-D-Lysine Coated 96 or 384-well plate and keep in a 37° C.-10% CO2 incubator overnight • 2. […] Incubate in the dark at 25° C. for 60-70 min • 5. Remove dye, wash cells with 0.1 mL (96-well plate) or 0.06 mL (384-well plate) of 4, 12, 25, or 30 mM Potassium Pre-polarization Buffer (PPB) • 6. […] Incubate in the dark at 25° C. for 30 min • 8. Read cell plate on VIPR instrument, Excitation=480 nm, Emission=535 nm • 9. With VIPR continuously reading, add 0.1 mL (96-well plate) or 0.03 mL (384-well plate) of Depolarization Buffer (DB), which is 2× the final assay concentration, to the cell plate.

T1 sequence (Q00975 whole entry): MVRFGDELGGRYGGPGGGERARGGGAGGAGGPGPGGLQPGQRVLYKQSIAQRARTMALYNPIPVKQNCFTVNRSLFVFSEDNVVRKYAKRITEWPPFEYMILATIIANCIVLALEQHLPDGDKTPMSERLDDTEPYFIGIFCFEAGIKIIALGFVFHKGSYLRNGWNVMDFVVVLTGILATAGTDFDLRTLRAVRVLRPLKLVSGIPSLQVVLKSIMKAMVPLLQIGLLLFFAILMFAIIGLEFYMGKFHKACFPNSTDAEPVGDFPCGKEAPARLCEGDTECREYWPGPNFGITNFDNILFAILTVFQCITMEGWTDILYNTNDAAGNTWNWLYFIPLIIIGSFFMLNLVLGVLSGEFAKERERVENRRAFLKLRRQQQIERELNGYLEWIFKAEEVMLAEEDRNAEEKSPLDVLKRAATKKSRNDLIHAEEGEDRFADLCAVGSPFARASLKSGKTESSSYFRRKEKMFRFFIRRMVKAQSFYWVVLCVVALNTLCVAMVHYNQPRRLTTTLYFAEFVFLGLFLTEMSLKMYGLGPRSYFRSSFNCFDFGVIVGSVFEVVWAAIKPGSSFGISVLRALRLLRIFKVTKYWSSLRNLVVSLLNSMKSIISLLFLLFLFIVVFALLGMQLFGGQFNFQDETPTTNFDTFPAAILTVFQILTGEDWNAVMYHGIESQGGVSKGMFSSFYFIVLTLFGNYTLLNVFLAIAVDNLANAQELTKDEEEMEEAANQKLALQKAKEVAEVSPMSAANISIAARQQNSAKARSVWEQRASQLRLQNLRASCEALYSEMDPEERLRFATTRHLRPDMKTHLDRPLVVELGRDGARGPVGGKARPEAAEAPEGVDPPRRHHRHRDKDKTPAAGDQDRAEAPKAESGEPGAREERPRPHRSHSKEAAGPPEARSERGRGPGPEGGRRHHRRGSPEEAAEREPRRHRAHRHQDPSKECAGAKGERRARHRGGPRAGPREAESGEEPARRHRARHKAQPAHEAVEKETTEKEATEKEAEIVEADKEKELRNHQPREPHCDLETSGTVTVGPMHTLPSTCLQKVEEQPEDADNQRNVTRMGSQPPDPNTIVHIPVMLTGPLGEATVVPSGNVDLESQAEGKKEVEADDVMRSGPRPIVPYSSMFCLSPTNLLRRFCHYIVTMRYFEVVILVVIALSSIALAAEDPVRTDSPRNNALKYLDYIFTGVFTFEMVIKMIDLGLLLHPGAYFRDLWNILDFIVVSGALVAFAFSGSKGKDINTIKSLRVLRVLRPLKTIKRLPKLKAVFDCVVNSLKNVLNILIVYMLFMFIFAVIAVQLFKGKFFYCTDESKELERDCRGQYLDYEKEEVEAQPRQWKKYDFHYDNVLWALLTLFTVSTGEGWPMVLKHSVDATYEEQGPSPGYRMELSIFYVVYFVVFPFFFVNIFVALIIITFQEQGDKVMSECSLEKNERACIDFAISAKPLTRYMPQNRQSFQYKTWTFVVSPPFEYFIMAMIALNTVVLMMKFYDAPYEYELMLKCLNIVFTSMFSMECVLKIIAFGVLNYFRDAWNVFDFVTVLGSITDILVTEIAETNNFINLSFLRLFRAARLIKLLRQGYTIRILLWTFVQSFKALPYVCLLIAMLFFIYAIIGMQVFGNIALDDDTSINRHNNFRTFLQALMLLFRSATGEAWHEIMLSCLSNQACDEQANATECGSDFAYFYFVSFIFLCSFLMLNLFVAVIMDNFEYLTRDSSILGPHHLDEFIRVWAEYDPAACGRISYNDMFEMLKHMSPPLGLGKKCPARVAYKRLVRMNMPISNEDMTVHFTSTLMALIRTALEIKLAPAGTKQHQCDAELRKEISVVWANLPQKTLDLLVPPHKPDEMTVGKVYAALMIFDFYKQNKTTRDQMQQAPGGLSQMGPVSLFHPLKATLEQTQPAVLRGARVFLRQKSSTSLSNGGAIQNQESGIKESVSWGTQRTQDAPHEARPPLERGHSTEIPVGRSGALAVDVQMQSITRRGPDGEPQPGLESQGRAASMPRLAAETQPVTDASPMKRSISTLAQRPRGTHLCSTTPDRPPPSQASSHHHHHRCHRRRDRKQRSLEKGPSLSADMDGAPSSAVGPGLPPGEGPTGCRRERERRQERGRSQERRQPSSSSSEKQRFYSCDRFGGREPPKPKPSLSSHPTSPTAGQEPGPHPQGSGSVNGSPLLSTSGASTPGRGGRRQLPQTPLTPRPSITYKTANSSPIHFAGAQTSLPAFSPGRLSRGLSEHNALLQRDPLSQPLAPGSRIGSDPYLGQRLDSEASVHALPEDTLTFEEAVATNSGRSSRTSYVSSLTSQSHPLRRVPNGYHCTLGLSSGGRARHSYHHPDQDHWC
T1 sequence (P54289 25-1103 partner): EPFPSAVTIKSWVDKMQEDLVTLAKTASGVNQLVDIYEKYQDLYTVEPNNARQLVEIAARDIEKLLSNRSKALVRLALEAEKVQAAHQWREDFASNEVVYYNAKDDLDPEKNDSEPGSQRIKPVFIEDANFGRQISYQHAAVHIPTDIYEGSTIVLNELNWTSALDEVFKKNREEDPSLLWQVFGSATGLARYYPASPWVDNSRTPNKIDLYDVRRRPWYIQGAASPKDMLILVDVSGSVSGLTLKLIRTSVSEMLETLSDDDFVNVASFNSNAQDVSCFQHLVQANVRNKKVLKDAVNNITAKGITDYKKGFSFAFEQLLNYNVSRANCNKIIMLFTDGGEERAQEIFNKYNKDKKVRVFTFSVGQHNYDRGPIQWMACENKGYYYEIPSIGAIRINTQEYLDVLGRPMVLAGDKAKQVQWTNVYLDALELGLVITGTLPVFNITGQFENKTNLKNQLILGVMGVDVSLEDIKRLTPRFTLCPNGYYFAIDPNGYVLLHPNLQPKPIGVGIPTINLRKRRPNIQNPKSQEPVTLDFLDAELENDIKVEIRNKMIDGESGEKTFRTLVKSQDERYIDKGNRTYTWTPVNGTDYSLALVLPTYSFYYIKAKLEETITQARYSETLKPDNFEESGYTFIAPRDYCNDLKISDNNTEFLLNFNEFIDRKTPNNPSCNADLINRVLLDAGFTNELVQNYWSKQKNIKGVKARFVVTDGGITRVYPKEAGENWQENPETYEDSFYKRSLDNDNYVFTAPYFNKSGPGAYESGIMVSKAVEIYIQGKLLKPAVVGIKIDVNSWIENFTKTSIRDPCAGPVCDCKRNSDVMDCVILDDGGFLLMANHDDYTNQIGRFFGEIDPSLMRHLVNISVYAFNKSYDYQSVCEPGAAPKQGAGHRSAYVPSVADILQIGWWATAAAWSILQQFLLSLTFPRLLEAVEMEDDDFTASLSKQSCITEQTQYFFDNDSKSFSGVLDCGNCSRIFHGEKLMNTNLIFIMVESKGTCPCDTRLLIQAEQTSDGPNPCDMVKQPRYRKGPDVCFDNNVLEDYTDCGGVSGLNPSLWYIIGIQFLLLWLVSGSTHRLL
T1 sequence (P54284 whole entry partner): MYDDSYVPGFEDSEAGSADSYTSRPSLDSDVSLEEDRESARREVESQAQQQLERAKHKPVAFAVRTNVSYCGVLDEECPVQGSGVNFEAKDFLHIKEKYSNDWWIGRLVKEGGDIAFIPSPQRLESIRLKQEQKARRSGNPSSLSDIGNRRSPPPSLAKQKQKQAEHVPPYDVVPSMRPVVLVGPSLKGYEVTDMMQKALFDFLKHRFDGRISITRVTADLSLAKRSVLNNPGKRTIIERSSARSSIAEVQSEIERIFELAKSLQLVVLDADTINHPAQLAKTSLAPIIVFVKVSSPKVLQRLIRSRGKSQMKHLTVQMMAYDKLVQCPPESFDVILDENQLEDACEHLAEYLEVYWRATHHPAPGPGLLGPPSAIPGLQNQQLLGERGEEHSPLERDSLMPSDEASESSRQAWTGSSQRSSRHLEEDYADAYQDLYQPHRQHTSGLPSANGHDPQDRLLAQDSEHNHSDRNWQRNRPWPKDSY

Compound	Cav 2.2 Activity % Inh at 10 μM (10 μM compound) [%]	Cav 2.2 Activity % Inh at 30 μM (30 μM compound) [%]	IC50 [nM]	inhibition at 10 µM (10 μM compound) [%]	inhibition at 30 µM (30 μM compound) [%]
1-(2,6-di-tert-butylisonicotinimidamido)-N-((5-methylisoxazol-3-yl)methyl)cyclopentanecarboxamide [Compound 90]	90.95	98.53	77.2	–	–
COc1c(C(C)(C)C)cc(CNC2(C(=O)NCc3cccc(C(F)(F)F)c3)CCCCC2)cc1C(C)(C)C [Compound 71, 1-(3,5-di-tert-butyl-4-methoxybenzylamino)-N-(3-(trifluoromethyl)benzyl)cyclohexanecarboxamide]	–	–	477	77.3	81.1
CC(C)(C(N)=O)c1cccc(C(=O)NC2(C(=O)NCc3cccc(C(F)(F)F)c3)CCCCC2)c1 [Compound 121, 3-(1-amino-2-methyl-1-oxopropan-2-yl)-N-(1-(3-(trifluoromethyl)benzylcarbamoyl)cyclohexyl)benzamide]	–	–	–	18.6	70.8
CNC(=O)C1(NC(=O)c2cc(C(C)(C)C)cc(C(C)(C)C)c2)CCCCC1 [Compound 35, 3,5-di-tert-butyl-N-(1-(methylcarbamoyl)cyclohexyl)benzamide]	–	–	1260	92.5	98.6
CC(C)(C)c1cc(C(=O)NC2(C(=O)NCc3nccs3)CCCCC2)cc(C(C)(C)C)n1 [Compound 80, 2,6-di-tert-butyl-N-(1-(thiazol-2-ylmethylcarbamoyl)cyclohexyl)isonicotinamide]	–	–	106	98.4	104
COc1c(C(C)(C)C)cc(C(=O)NC2(C(=O)NCc3cnc(C)cn3)CCCCC2)cc1C(C)(C)C [Compound 88, 3,5-di-tert-butyl-4-methoxy-N-(1-((5-methylpyrazin-2-yl)methylcarbamoyl)cyclohexyl)benzamide]	–	–	14.2	96.3	96.7
COc1c(C(C)(C)C)cc(C(=O)NC2(C(=O)NCc3cnc(C)cn3)CCN(C(=O)OC(C)(C)C)CC2)cc1C(C)(C)C [Compound 22, tert-butyl 4-(3,5-di-tert-butyl-4-methoxybenzamido)-4-((5-methylpyrazin-2-yl)methylcarbamoyl)piperidine-1-carboxylate]	–	–	402	95.1	–
CN1CCN(Cc2ccc(CNC(=O)C3(NC(=O)c4cc(C(C)(C)C)nc(C(C)(C)C)c4)CCOCC3)cc2)CC1 [Compound 27, 2,6-di-tert-butyl-N-(4-(4-((4-methylpiperazin-1-yl)methyl)benzylcarbamoyl)tetrahydro-2H-pyran-4-yl)isonicotinamide]	–	–	1040	102	–
COc1ccc(CNC(=O)C2(NC(=O)c3cc(C(C)(C)C)cc(C(C)(C)C)c3)CCCCC2)cc1 [Compound 45, 3,5-di-tert-butyl-N-(1-(4-methoxybenzylcarbamoyl)cyclohexyl)benzamide]	–	–	25.2	95.7	99.5
CC(C)(C#N)c1ccc(C(=O)NC2(C(=O)NCc3ccccc3)CCCCC2)cc1 [Compound 122, N-(1-(benzylcarbamoyl)cyclohexyl)-4-(2-cyanopropan-2-yl)benzamide]	–	–	–	45.2	80.5
Cc1cc(CNC(=O)C2(NC(=O)c3cc(C4CC4)cc(C4CC4)c3)CCCCC2)nn1C [Compound 6, 3,5-dicyclopropyl-N-(1-((1,5-dimethyl-1H-pyrazol-3-yl)methylcarbamoyl)cyclohexyl)benzamide]	–	–	–	54.7	66
CC(C)(C)c1cc(C(=O)NC2(C(=O)NCc3cccc(S(C)(=O)=O)c3)CC2)cc(C(C)(C)C)c1O [Compound 16, 3,5-di-tert-butyl-4-hydroxy-N-(1-(3-(methylsulfonyl)benzylcarbamoyl)cyclopropyl)benzamide]	–	–	–	89.3	93
CC(C)(C)c1cc(C(=O)NC2(C(=O)NCc3cccnc3)CCCCC2)cc(C(C)(C)C)c1 [Compound 103, 3,5-di-tert-butyl-N-(1-(pyridin-3-ylmethylcarbamoyl)cyclohexyl)benzamide]	–	–	65.3	–	–
CC(C)(C#N)c1cccc(C(=O)NC2(C(=O)NCc3ccccc3)CCCCC2)c1 [Compound 123, N-(1-(benzylcarbamoyl)cyclohexyl)-3-(2-cyanopropan-2-yl)benzamide]	–	–	–	53.5	27.3
CC(C)(C)NC(=O)C(C)(C)c1cc(C(=O)NC2(C(=O)NCc3ccccc3)CCCCC2)cc(C(C)(C)C(=O)NC(C)(C)C)c1 [Compound 63, 2,2′-(5-(1-(benzylcarbamoyl)cyclohexylcarbamoyl)-1,3-phenylene)bis(N-tert-butyl-2-methylpropanamide)]	–	–	–	66.4	82
COc1ccc(CNC(=O)C2(NC(=O)c3cc(C(C)(C)C)c(OC)c(C(C)(C)C)c3)CC2)cc1 [Compound 110, 3,5-di-tert-butyl-4-methoxy-N-(1-(4-methoxybenzylcarbamoyl)cyclopropyl)benzamide]	–	–	121	100	101
COc1c(C(C)(C)C)cc(CC(=O)NC2(C(=O)NCc3cccc(C(F)(F)F)c3)CCCCC2)cc1C(C)(C)C [Compound 15, 1-(2-(3,5-di-tert-butyl-4-methoxyphenyl)acetamido)-N-(3-(trifluoromethyl)benzyl)cyclohexanecarboxamide]	–	–	–	48.2	65.9
Cc1cc(CNC(=O)C2(NC(=O)c3cc(C(C)(C)C)c(O)c(C(C)(C)C)c3)CCCCC2)nn1C [Compound 8, 3,5-di-tert-butyl-N-(1-((1,5-dimethyl-1H-pyrazol-3-yl)methylcarbamoyl)cyclohexyl)-4-hydroxybenzamide]	–	–	129	100	99
CC(C)(C#N)c1cccc(C(=O)NC2(C(=O)NCc3cccc(C(F)(F)F)c3)CCCCC2)c1 [Compound 124, 3-(2-cyanopropan-2-yl)-N-(1-(3-(trifluoromethyl)benzylcarbamoyl)cyclohexyl)benzamide]	–	–	810	84.2	74
CC(C)(C)c1cc(C(=O)NC2(C(=O)NCc3ccccc3)CCCCC2)cc(C(C)(C)C#N)c1 [Compound 70, N-(1-(benzylcarbamoyl)cyclohexyl)-3-tert-butyl-5-(2-cyanopropan-2-yl)benzamide]	–	–	27.4	89.8	96.3
CC(C)(C)c1cc(CNC2(C(=O)NCc3cccc(C(F)(F)F)c3)CCCCC2)cc(C(C)(C)C)c1 [Compound 60, 1-(3,5-di-tert-butylbenzylamino)-N-(3-(trifluoromethyl)benzyl)cyclohexanecarboxamide]	–	–	–	74.8	85.8
CC(C)(C)c1cc(C(=O)NC2(C(=O)NCc3ccccc3)CCCC2)cc(C(C)(C)C)n1 [Compound 95, N-(1-(benzylcarbamoyl)cyclopentyl)-2,6-di-tert-butylisonicotinamide]	–	–	132	94.6	101
CC(C)(C)OC(=O)N1CCC(NC(=O)c2cc(C(C)(C)C)nc(C(C)(C)C)c2)(C(=O)NCc2ccccc2)CC1 [Compound 59, tert-butyl 4-(benzylcarbamoyl)-4-(2,6-di-tert-butylisonicotinamido)piperidine-1-carboxylate]	–	–	–	50.2	62.5
CC(C)(C)c1cc(C(=O)NC2(C(=O)NCc3ccc(CN4CCOCC4)cc3)CCOCC2)cc(C(C)(C)C)n1 [Compound 24, 2,6-di-tert-butyl-N-(4-(4-(morpholinomethyl)benzylcarbamoyl)tetrahydro-2H-pyran-4-yl)isonicotinamide]	–	–	767	79.2	–
COc1c(C(C)(C)C)cc(C(=O)NC2(C(=O)N3CCN(Cc4ccccc4)CC3)CCCCC2)cc1C(C)(C)C [Compound 83, N-(1-(4-benzylpiperazine-1-carbonyl)cyclohexyl)-3,5-di-tert-butyl-4-methoxybenzamide]	–	–	134	97.2	100
CC(C)(C)c1cc(C(=O)NC2(C(=O)NCc3ccc(Cl)cc3)CCCCC2)cc(C(C)(C)C)c1 [Compound 46, 3,5-di-tert-butyl-N-(1-(4-chlorobenzylcarbamoyl)cyclohexyl)benzamide]	–	–	77.9	96.6	97.9
COc1ccc(CNC(=O)C2(NC(=O)Cc3cc(C(C)(C)C)c(OC)c(C(C)(C)C)c3)CCCCC2)cc1 [Compound 18, 1-(2-(3,5-di-tert-butyl-4-methoxyphenyl)acetamido)-N-(4-methoxybenzyl)cyclohexanecarboxamide]	–	–	–	40.7	34.5
